Measurements published in ChEMBL document CHEMBL1133799, “A disubstituted NAD+ analogue is a nanomolar inhibitor of trypanosomal glyceraldehyde-3-phosphate dehydrogenase” (Bioorg Med Chem Lett, 2001).

Tests used:
[1] = test system: COc1cccc(C(=O)N[C@@H]2[C@H](O)[C@@H](CO)O[C@H]2n2cnc3c(NCc4cccc5ccccc45)ncnc32)c1
Description: Binding affinity for NAD- in human glyceraldehyde-3-phosphate dehydrogenase (GAPDH)

Chain of Glyceraldehyde-3-phosphate dehydrogenase (Homo sapiens), P04406 (P04406 whole entry): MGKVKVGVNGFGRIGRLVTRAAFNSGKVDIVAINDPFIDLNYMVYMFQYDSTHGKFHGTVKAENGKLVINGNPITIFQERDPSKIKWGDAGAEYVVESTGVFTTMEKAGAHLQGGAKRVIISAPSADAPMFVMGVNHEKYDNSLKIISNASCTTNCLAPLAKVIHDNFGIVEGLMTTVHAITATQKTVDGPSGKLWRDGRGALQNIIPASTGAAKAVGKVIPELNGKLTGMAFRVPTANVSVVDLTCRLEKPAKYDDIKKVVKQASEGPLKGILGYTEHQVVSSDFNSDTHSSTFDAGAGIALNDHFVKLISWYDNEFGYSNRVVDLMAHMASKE
Description for Trypanosoma: Binding affinity for NAD- in trypanosomal glyceraldehyde-3-phosphate dehydrogenase (GAPDH)

| Km (Trypanosoma) | Compound | Km [1] |
| --- | --- | --- |
| 0.45 µM | COc1cccc(C(=O)N[C@@H]2[C@H](O)[C@@H](CO)O[C@H]2n2cnc3c(NCc4cccc5ccccc45)ncnc32)c1 |  |
|  | Glyceraldehyde-3-phosphate dehydrogenase (Homo sapiens), P04406 | 0.04 µM |
